Results on 20 compounds are retold here after ChEMBL document CHEMBL1145547, “Achiral, selective CCK2 receptor antagonists based on a 1,3,5-benzotriazepine-2,4-dione template” (Bioorg Med Chem, 2008).

Experiment [1] concerns the target T1, Gastrin/cholecystokinin type B receptor (Homo sapiens, UniProt P32239).
T1 sequence (P32239 whole entry): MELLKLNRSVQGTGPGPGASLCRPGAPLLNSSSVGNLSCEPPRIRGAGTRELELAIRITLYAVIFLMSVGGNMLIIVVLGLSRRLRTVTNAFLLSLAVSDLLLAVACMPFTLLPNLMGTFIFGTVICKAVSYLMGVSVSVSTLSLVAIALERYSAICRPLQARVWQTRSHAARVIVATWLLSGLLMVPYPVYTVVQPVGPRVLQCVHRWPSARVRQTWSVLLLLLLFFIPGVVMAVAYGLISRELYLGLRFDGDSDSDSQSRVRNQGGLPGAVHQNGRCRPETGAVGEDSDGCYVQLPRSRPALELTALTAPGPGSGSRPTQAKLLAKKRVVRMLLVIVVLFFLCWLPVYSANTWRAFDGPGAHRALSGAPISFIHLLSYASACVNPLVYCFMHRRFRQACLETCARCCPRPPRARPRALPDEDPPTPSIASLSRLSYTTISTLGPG
Briefly: Displacement of [125I]BH-CCK-8S from human recombinant CCK2 receptor expressed in NIH3T3 cells. The class given is cell-based.

For experiment [2], the target named is T2, Cholecystokinin receptor type A (Homo sapiens, UniProt P32238).
T2 sequence (P32238 whole entry): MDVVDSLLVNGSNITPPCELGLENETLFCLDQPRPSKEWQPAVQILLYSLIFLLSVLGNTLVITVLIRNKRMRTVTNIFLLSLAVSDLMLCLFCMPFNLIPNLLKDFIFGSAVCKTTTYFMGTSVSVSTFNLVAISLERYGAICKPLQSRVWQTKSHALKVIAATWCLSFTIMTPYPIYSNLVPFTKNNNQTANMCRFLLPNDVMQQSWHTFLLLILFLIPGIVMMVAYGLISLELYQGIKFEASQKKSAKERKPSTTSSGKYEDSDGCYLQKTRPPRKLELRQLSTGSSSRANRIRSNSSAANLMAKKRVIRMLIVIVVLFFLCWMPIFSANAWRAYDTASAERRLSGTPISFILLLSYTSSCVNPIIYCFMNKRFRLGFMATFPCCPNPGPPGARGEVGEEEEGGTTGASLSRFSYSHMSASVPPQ
Put plainly: Displacement of [3H]L-364718 from human recombinant CCK1 receptor expressed in CHO-K1 cells. The class given is cell-based.

Experiment [3] addresses T1, Gastrin/cholecystokinin type B receptor. Put plainly: Binding affinity at human CCK2 receptor.
Experiment [4] concerns the target T2, Cholecystokinin receptor type A. Briefly: Binding affinity to human CCK1 receptor.
The target of experiment [5] is T3, Cholecystokinin receptor type A (Cavia porcellus) (UniProt Q63931).
T3 sequence (whole entry): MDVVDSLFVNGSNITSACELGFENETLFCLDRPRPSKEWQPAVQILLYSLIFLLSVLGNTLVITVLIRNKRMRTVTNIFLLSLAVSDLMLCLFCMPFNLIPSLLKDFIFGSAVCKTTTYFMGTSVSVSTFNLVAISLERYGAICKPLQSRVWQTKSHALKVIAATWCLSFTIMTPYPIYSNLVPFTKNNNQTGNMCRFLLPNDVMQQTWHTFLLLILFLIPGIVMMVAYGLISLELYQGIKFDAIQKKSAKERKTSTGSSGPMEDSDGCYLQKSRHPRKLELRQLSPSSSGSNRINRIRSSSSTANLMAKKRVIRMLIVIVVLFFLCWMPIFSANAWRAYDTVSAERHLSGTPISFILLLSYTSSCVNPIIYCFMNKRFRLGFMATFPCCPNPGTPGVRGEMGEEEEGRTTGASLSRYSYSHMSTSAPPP
Put plainly: Agonist activity at CCK1 receptor assessed as stimulation of contraction in guinea pig gallbladder at 30 uM relative to CCK8. The class given is functional.

Experiment [6] deals with T4, Cholecystokinin receptor type A (Cavia porcellus, UniProt Q63931).
T4 sequence (Q63931 whole entry): T3 sequence (whole entry)
Briefly: (§1) Agonist activity at CCK1 receptor assessed as stimulation of contraction in guinea pig gallbladder. The class given is functional.

Experiment [7] concerns the target T5, Gastrin/cholecystokinin type B receptor (Rattus norvegicus) (UniProt P30553).
T5 sequence (whole entry): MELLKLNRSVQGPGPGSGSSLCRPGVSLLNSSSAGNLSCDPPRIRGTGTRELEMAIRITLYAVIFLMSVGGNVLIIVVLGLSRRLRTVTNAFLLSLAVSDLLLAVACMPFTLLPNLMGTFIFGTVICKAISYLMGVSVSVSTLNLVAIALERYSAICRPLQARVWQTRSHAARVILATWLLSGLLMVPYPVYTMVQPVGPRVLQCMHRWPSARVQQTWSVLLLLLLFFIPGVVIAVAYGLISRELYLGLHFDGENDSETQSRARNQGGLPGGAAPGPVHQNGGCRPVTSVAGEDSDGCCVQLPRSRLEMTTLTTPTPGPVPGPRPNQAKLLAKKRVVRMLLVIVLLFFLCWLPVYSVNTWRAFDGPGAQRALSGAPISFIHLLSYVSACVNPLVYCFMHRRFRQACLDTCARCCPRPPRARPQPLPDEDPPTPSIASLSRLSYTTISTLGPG
Put plainly: Antagonist activity at CCK2 receptor in immature rat stomach assessed as pentagastrin-induced acid secretion at 1 uM. It is filed as functional, tissue-based.

The target of experiment [8] is T6, Gastrin/cholecystokinin type B receptor (Mus musculus, UniProt P56481).
T6 sequence (P56481 whole entry): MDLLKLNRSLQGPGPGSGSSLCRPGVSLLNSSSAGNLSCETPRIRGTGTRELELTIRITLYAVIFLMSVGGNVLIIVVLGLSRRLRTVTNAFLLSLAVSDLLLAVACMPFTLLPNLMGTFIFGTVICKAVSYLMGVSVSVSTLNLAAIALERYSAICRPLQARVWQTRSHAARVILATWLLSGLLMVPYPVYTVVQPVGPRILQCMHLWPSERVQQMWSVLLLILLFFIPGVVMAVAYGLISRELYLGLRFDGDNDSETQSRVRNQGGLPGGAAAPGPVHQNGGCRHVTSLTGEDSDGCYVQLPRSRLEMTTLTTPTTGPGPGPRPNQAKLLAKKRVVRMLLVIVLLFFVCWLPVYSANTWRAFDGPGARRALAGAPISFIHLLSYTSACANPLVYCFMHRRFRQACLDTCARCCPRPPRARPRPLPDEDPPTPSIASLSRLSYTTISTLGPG
Put plainly: Binding affinity to mouse CCK2 receptor.

In experiment [9] the target is T7, Cholecystokinin receptor type A (Mus musculus, UniProt O08786).
T7 sequence (O08786 whole entry): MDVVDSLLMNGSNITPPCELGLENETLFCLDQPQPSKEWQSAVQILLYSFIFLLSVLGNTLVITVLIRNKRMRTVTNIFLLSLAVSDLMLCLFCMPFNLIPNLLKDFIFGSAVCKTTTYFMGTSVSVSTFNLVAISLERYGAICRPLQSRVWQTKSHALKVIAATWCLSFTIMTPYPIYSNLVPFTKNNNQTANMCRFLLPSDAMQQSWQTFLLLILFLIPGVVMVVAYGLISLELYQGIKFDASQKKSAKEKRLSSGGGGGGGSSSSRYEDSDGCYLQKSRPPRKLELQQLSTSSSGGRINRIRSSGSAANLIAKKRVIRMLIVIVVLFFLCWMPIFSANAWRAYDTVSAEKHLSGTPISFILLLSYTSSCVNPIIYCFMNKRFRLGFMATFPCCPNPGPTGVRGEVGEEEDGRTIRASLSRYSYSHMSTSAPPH
Put plainly: Binding affinity to mouse CCK1 receptor.

The target of experiment [10] is T3, Cholecystokinin receptor type A (Cavia porcellus). The description is as §1. It is filed as functional.

Usually Ki stands for the equilibrium dissociation constant of an inhibitor or competing ligand from its target. Broadly, the EC50 is the concentration that produces a half-maximal response. The IC50 is the concentration that inhibits the measured activity by half. Read a high IC50 as weaker potency in that assay. In general, pKb refers to −log10 of the Kb, conventionally taken in molar units.

The source made the active and inactive calls. The calls are words filed in the database; no cut-off is given here. A value given as a limit tells only on which side of the number the result lay.

`CNc1cccc(NC(=O)CN2C(=O)N(CC(=O)C(C)(C)C)c3ccccc3N(C3CCCCC3)C2=O)c1`: the Ki is 9.55 nM in experiment [1] and 2340 nM in experiment [2].

On to `Cc1cccc(NC(=O)CN2C(=O)N(CC(=O)C(C)(C)C)c3ccccc3N(C3CCCCCC3)C2=O)c1`, for which the Ki is 7.59 nM in experiment [1] and 447 nM in experiment [2].

With `CC(C)N(C(=O)CN1C(=O)C(NC(=O)Nc2cccc(C(=O)O)c2)C(=O)N(c2ccccc2)c2ccccc21)c1ccccc1` (centres undefined), the values for the Ki in experiment [3] and in experiment [4] were 10 nM and 126 nM, respectively. In addition, the Activity in experiment [5] was 102%. The EC50 in experiment [6] was 39.8 nM.

`Cc1cccc(NC(=O)CN2C(=O)N(CC(=O)N3CCCC3)c3ccccc3N(C3CCCCCC3)C2=O)c1`: the Ki is 23.4 nM in [1] and 617 nM in [2]. For the same compound, the result in [7] was inactive.

For `Cc1cccc(NC(=O)NC2C(=O)N(CC(=O)N3CCCC3)c3ccccc3N(CC(=O)N3CCCC3)C2=O)c1`, the IC50 was 50.1 nM in experiment [8] and 794 nM in experiment [9].

For `CC(C)(C)C(=O)CN1C(=O)N(CCCC(=O)Nc2cccc(-c3nc(=O)o[nH]3)c2)C(=O)N(C2CCCCC2)c2ccccc21`, the Ki in experiment [1] was 20.9 nM; in experiment [2], 72.4 nM.

Take `CN(c1cccc(NC(=O)CN2C(=O)N(CC(=O)C(C)(C)C)c3ccccc3N(C3CCCCC3)C2=O)c1)c1nn[nH]n1`: the results for the Ki in experiment [1] and in experiment [2] were 4.27 nM and 2090 nM, respectively.

Turning to `CC(C)(C)C(=O)CN1C(=O)N(CC(=O)Nc2cccc(C(=O)O)c2)N=C(C2CCCCC2)c2ccccc21`, the Ki in experiment [3] is 1 nM; in experiment [4] it was 10000 nM.

With `CN(C(=O)CN1C(=O)C(NC(=O)Nc2ccccc2)C(=O)N(c2ccccc2)c2ccccc21)c1ccccc1` (centres undefined), the outcome in [5] was inactive. For the same compound, the pKb in [10] worked out at 6.3.

For `CC(C)(C)C(=O)CN1C(=O)N(CC(=O)Nc2cccc(SCC(=O)O)c2)C(=O)N(C2CCCCCC2)c2ccccc21`, the figures for the Ki in [1] and in [2] were 0.891 nM and 282 nM, respectively.

On to `Cc1nc(-c2cccc(NC(=O)CN3C(=O)N(CC(=O)C(C)(C)C)c4ccccc4N(C4CCCCC4)C3=O)c2)cs1`, for which the Ki was 9.55 nM in experiment [1] and 1550 nM in [2].

For `CC(C)(C)C(=O)CN1C(=O)N(CC(=O)Nc2cccc(-c3nc(=O)o[nH]3)c2)C(=O)N(C2CCCCC2)c2ccccc21`, the Ki is 1.2 nM in experiment [1] and 316 nM in experiment [2].

Regarding `CC(C)(C)C(=O)CN1C(=O)N(CC(=O)Nc2cccc(CCC(=O)O)c2)C(=O)N(C2CCCCC2)c2ccccc21`, the Ki in experiment [1] was 6.31 nM; in [2], 2340 nM.

Consider `CC(C)N(C(=O)CN1C(=O)C(NC(=O)Nc2ccccc2)C(=O)N(c2ccccc2)c2ccccc21)c1ccccc1` (centres undefined), for which the Activity in experiment [5] was found to be 86%.

For `CC(C)N(C(=O)CN1C(=O)C(CC(=O)Nc2ccccc2)C(=O)N(c2ccccc2)c2ccccc21)c1ccccc1` (centres undefined), the Ki is 794 nM in experiment [3] and 158 nM in experiment [4]. For the same compound, the Activity in experiment [5] came out at 50%. The EC50 in experiment [6] is 398 nM.

As for `CC(C)(C)C(=O)CN1C(=O)N(CC(=O)Nc2cccc(-c3nc(=O)o[nH]3)c2)C(=O)N(C2CCCCCC2)c2ccccc21`, the values for the Ki in [1] and in experiment [2] were 0.427 nM and 117 nM, respectively.

For the compound `O=C(CN1C(=O)N(CC(=O)N2CCCC2)c2ccccc2N(c2ccccc2)C1=O)Nc1cccc(C(=O)O)c1`, the Ki was 380 nM in experiment [1] and above 10000 nM in experiment [2].

Take `O=C(CN1C(=O)N(CC(=O)N2CCCC2)c2ccccc2N(c2ccccc2)C1=O)Nc1ccccc1`: the figures for the Ki in experiment [1] and in [2] were 1000 nM and above 10000 nM, respectively.

In the case of `CC(C)(C)C(=O)CN1C(=O)N(CC(=O)Nc2cccc(CC(=O)O)c2)C(=O)N(C2CCCCCC2)c2ccccc21`, the results for the inhibition constant (Ki) in [1] and in experiment [2] were 3.16 nM and 3890 nM, respectively.

In the case of `CNc1cccc(NC(=O)N[C@@H]2N=C(c3ccccn3)c3ccccc3N(CC(=O)C(C)(C)C)C2=O)c1` [NETAZEPIDE], the Ki in [3] was 0.0794 nM; in experiment [4], 31.6 nM.
